US20250304549A1, “HYDROXYAMIDE DERIVATIVE AND USE THEREOF” (SICHUAN HUIYU PHARMACEUTICAL CO., LTD., priority 2022, published 2025)
Counter-ions that a name gives are not always drawn.

Assays:
[1] = biological target: HDAC8 (Homo sapiens (Human), UniProt Q9BY41); assay: In vitro enzyme inhibition assay - HDAC (HDAC-Glo I/II), HDAC8; assay type: biochemical; conditions: read-out: HDAC IC50 (nM) HDAC 8
Summary of the method: (§1)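 Inhibition was measured with the HDAC-Glo I/II luminescent assay, testing compound as an 8-point, 5-fold dilution series from a 1 mM DMSO stock. Luminescence (RLU) was normalized to no-inhibitor and no-enzyme controls, and IC50 was derived by four-parameter variable-slope fitting.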

[2] = biological target: LSD1 (Homo sapiens (Human), UniProt O60341); assay: In vitro enzyme inhibition assay - LSD1 (HTRF); assay type: biochemical
[3] = test system: NCI-H526 cells; assay: In vitro cell inhibition assay - NCI-H526 cell proliferation (CellTiter-Glo); assay type: cell-based; conditions: Homo sapiens, NCI-H526, 120 h, H526 small cell lung cancer cell proliferation, 5 days
Summary of the method: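 NCI-H526 cells plated at 1×10^3 per well overnight, then treated with 8 concentrations (5-fold dilutions) in RPMI-640 with 10% FBS for 5 days at 37° C., 5% CO2. Viable cells quantified by CellTiter-Glo luminescence; IC50 fitted from inhibition rates relative to no-inhibitor and no-cell controls.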

[4] = biological target: HDAC1 (Homo sapiens (Human), UniProt Q13547); assay: In vitro enzyme inhibition assay - HDAC (HDAC-Glo I/II), HDAC1; assay type: biochemical; conditions: read-out: HDAC IC50 (nM) HDAC 1
Chain of HDAC1 (Q13547 whole entry): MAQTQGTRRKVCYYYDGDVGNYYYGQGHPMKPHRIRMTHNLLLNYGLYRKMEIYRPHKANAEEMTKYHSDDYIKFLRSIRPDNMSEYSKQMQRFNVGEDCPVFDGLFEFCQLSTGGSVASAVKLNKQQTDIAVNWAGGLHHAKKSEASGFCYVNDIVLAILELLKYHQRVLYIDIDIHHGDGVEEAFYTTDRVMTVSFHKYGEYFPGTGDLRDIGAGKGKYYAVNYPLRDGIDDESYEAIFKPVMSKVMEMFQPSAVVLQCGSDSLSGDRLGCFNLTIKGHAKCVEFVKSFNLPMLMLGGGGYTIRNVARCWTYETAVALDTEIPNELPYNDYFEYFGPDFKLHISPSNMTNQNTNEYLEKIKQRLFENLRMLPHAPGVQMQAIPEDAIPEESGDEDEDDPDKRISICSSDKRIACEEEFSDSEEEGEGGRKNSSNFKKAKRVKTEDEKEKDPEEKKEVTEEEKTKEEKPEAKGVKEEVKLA
Description: 2. In Vitro Enzyme Inhibition Assay—HDAC
The effect of the compound on the enzymatic activity of pan-HDAC and two isoforms (HDAC1 and HDAC8) was examined using the HDAC-Glo I/II Assay and Screening System assay to assess the level of inhibition of HDAC protease activity and selectivity in each isoform. The proteins and detection reagents were from the HDAC-Glo™ I/II Assay and Screening System (Promega). A 1 mM stock solution of the compound was prepared in DMSO and diluted in a 5-fold gradient to create a series of 8 concentrations, and a specific volume of the highest concentration was diluted 25 times with HDAC Buffer to obtain 4× working solution of the compound. […] The 384-well plate was then read on a multifunctional microplate reader, with the Luminescence channel selected to record Luminescence values (RLU). The inhibition rate was calculated using the following formula: […]
Note: ‘Negative’ refers to the group without the inhibitor; ‘Blank’ refers to the group without the enzyme.
The IC50 value was calculated by fitting the inhibition rate by GraphPad Prism software, employing log (inhibitor) vs. response-Variable Slope (four parameters) model.

[5] = test system: NCI-H1417 cells; assay: In vitro cell inhibition assay - H1417 cell proliferation (CellTiter-Glo); assay type: cell-based; conditions: Homo sapiens, NCI-H1417, H1417 small cell lung cancer cell proliferation
Summary of the method: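 Cells exposed to 8 compound concentrations (5-fold dilutions) in BEGM with 10% FBS for 7 days at 37° C., 5% CO2. Viable cells measured by CellTiter-Glo luminescence; inhibition versus no-inhibitor and no-cell controls, IC50 fitted.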

[6] = test system: NCI-H69 cells; assay: In vitro cell inhibition assay - NCI-H69 cell proliferation (CellTiter-Glo); assay type: cell-based; conditions: Homo sapiens, NCI-H69, H69 small cell lung cancer cell proliferation
Summary of the method: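 7-day exposure at 37° C., 5% CO2 to compounds serially diluted 5-fold (8 concentrations) in RPMI-640 containing 20% FBS, after overnight attachment at 1×10^3 cells/well. Read-out: CellTiter-Glo luminescence (RLU); IC50 from curve fit of inhibition rate.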

[7] = biological target: pan-HDAC; assay: In vitro enzyme inhibition assay - HDAC (HDAC-Glo I/II), pan-HDAC; assay type: biochemical
Summary of the method: as §1

Chain of HDAC8 (Q9BY41 whole entry): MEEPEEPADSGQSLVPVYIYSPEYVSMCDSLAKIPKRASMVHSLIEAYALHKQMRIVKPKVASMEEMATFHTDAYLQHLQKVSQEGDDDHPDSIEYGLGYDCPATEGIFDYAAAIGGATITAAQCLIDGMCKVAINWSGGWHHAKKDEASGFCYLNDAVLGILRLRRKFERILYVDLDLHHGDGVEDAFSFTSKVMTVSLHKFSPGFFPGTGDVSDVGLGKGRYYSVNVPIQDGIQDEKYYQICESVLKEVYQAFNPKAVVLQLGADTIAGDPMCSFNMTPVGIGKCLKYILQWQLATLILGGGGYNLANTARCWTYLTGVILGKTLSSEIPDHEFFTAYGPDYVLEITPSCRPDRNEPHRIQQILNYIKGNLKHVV

| SMILES | IC50 [1] [nM] | IC50 [2] [nM] | IC50 [3] [nM] | IC50 [4] [nM] | IC50 [5] [nM] | IC50 [6] [nM] | IC50 [7] [nM] |
| --- | --- | --- | --- | --- | --- | --- | --- |
| N#Cc1ccc(-c2c(-c3ccc(/C=C/C(=O)NO)c(O)c3)cnc(N3CCC(N)CC3)c2C#N)cc1F [Example 62, (E)-3-(4-(6-(4-Aminopiperidin-1-yl)-5-cyano-4-(4-cyano-3-fluorophenyl)pyridin-3-yl)-2-hydroxyphenyl)-N-hydroxyacrylamide hydrochloride] | 3190 | 0.49 | 1210 | 17.3 | 9.86 | 3220 | 5.53 |
| COc1ccc(-c2cnc(N3CCC(NC(C)(C)c4ccc(/C=C/C(=O)NO)cc4)CC3)c(C#N)c2-c2ccc(C#N)c(F)c2)cc1O [Example 179, (E)-3-(4-(2-((1-(3-Cyano-4-(4-cyano-3-fluorophenyl)-5-(3-hydroxy-4-methoxyphenyl)pyridin-2-yl)piperidin-4-yl)amino)propan-2-yl)phenyl)-N-hydroxyacrylamide formate] | 374 | 100 | 4.44 | 1.74 | 3.66 | 2.75 | 3.1 |
| COc1ccc(-c2cnc(N3CCC(NCc4ccc(OCC(=O)NO)cc4)CC3)c(C#N)c2-c2ccc(C#N)c(F)c2)cc1O [Example 181] | 75.1 | 0.13 | 28.4 | 0.08 | 2.93 | 13.1 | 2.11 |
| N#Cc1ccc(-c2c(-c3ccc4cn[nH]c4c3)cnc(N3CCC(NCc4ccc(/C=C/C(=O)NO)nc4)CC3)c2C#N)cc1F [Example 182, (E)-3-(5-(((1-(3-Cyano-4-(4-cyano-3-fluorophenyl)-5-(1H-indazol-6-yl)pyridin-2-yl)piperidin-4-yl)amino)methyl)pyridin-2-yl)-N-hydroxyacrylamide formate] | 30.1 | 0.09 | 7.04 | 1.3 | 9.29 | 4.36 | 3.02 |
| N#Cc1ccc(-c2c(-c3ccc4cn[nH]c4c3)cnc(N3CCC(NCc4cnc(/C=C/C(=O)NO)nc4)CC3)c2C#N)cc1F [Example 184, (E)-3-(5-((1-(3-Cyano-4-(4-cyano-3-fluorophenyl)-5-(1H-indazol-6-yl)pyridin-2-yl)piperidin-4-yl)amino)methyl) pyrimidin-2-yl)-N-hydroxyacrylamide formate] | 45.2 | 0.09 | 15.9 | 1.69 | 10.2 | 8.97 | 6.58 |
| CC(C)(O)COc1ccc(-c2cnc(N3CCC(NCc4ccc(/C=C/C(=O)NO)cc4)CC3)c(CC#N)c2-c2ccc(C#N)c(F)c2)cc1O [Example 218, (E)-3-(4-(((1-(4-(4-Cyano-3-fluorophenyl)-3-(cyanomethyl)-5-(3-hydroxy-4-(2-hydroxy-2-methylpropoxy)phenyl)pyridin-2-yl)piperidin-4-yl)amino)methyl)phenyl)-N-hydroxyacrylamide formate] | – | 10.2 | 35.6 | 1.77 | 13.4 | 15.3 | 1.01 |
| COc1ccc(-c2cnc(N3CCC(NCc4cnc(/C=C/C(=O)NO)cc4Cl)CC3)c(C#N)c2-c2ccc(C#N)c(F)c2)cc1O [Example 227, (E)-3-(4-Chloro-5-(((1-(3-cyano-4-(4-cyano-3-fluorophenyl)-5-(3-hydroxy-4-methoxyphenyl)pyridin-2-yl)piperidin-4-yl)amino)methyl)pyridin-2-yl)-N-hydroxyacrylamide formate] | – | 0.64 | 109 | 9.71 | 7.36 | 24.1 | 11.3 |
| N#Cc1ccc(-c2c(-c3ccc(Cl)c(O)c3)cnc(N3CCC(NCc4ccc(/C=C/C(=O)NO)cc4)CC3)c2C#N)cn1 [Example 237, (E)-3-(4-((1-(5′-(4-Chloro-3-hydroxyphenyl)-3′,6-dicyano-[3,4′-bipyridin]-2′-yl)piperidin-4-yl)amino)methyl) phenyl)-N-hydroxyacrylamide formate] | – | 1.75 | 4.4 | 1.29 | 4.06 | 3.27 | 3.37 |
| N#Cc1ccc(-c2c(-c3ccc(Cl)c(O)c3)cnc(N3CCC(NCc4ccc(/C=C/C(=O)NO)cn4)CC3)c2C#N)cn1 [Example 238, (E)-3-(6-((1-(5′-(4-Chloro-3-hydroxyphenyl)-3′,6-dicyano-[3,4′-bipyridin]-2′-yl)piperidin-4-yl)amino)methyl) pyridin-3-yl)-N-hydroxyacrylamide formate] | – | 3.48 | 56.1 | 1.62 | 25.7 | 28.7 | 4.05 |
| COc1cc(F)c(-c2cnc(N3CCC(NCc4ccc(/C=C/C(=O)NO)cn4)CC3)c(C#N)c2-c2ccc(C#N)nc2)cc1O [Example 240, (E)-3-(6-(((1-(3′,6-Dicyano-5′-(2-fluoro-5-hydroxy-4-methoxyphenyl)-[3,4′-bipyridin]-2′-yl)piperidin-4-yl)amino)methyl)pyridin-3-yl)-N-hydroxyacrylamide formate] | – | 0.82 | 60.9 | 1.85 | 9.62 | 24.8 | 4.73 |
| N#Cc1ccc(-c2c(-c3ccc(Cl)c(O)c3)cnc(N3CCC(NCc4ccc(/C=C/C(=O)NO)cc4F)CC3)c2C#N)cn1 [Example 241, (E)-3-(4-(((1-(5′-(4-Chloro-3-hydroxyphenyl)-3′,6-dicyano-[3,4′-bipyridin]-2′-yl)piperidin-4-yl)amino)methyl)-3-fluorophenyl)-N-hydroxyacrylamide formate] | – | 2.95 | 11.2 | 1.86 | 5.78 | 5.7 | 7.81 |
| COc1ccc(-c2cnc(N3CCC(NCc4ccc(/C=C/C(=O)NO)cc4)CC3)c(C#N)c2-c2cnc(C#N)c(OC)c2)cc1O [Example 243, (E)-3-(4-(((1-(3′,6-Dicyano-5′-(3-hydroxy-4-methoxyphenyl)-5-methoxy-[3,4′-bipyridin]-2′-yl)piperidin-4-yl)amino)methyl)phenyl)-N-hydroxyacrylamide hydrochloride] | – | 13.6 | 10.6 | 0.6 | 10.5 | 3.24 | 1.74 |
| N#Cc1ccc(-c2c(-c3ccc(N4CCOCC4)c(O)c3)cnc(N3CCC(NCc4ccc(/C=C/C(=O)NO)cc4)CC3)c2C#N)cn1 [Example 244, (E)-3-(4-(((1-(3′,6-Dicyano-5′-(3-hydroxy-4-morpholinophenyl)-[3,4′-bipyridin]-2′-yl)piperidin-4-yl)amino)methyl)phenyl)-N-hydroxyacrylamide formate] | – | 0.98 | 16.2 | 0.51 | 2.83 | 1.66 | 1.54 |
| COc1ccc(-c2cnc(N3CCC(NCc4ccc(/C=C/C(=O)NO)cc4)CC3)c(C#N)c2-c2cnc(C#N)c(C)c2)cc1O [Example 247, (E)-3-(4-(((1-(3′,6-Dicyano-5′-(3-hydroxy-4-methoxyphenyl)-5-methyl-[3,4′-bipyridin]-2′-yl)piperidin-4-yl)amino)methyl)phenyl)-N-hydroxyacrylamide formate] | – | 3.49 | 7.56 | 0.84 | 4.93 | 3.17 | 0.87 |
| COc1ccc(-c2cnc(N3CCC(NCc4ccc(/C=C/C(=O)NO)cc4)CC3)c(C#N)c2-c2ccc([N+](=O)[O-])nc2)cc1O [Example 248, (E)-3-(4-(((1-(3′-Cyano-5′-(3-hydroxy-4-methoxyphenyl)-6-nitro-[3,4′-bipyridin]-2′-yl)piperidin-4-yl)amino)methyl)phenyl)-N-hydroxyacrylamide formate] | – | 0.81 | 9.06 | 0.61 | 5.33 | 3.94 | 0.62 |
